Test results reported in patent US10975080B2, “Compounds and compositions for inhibiting the activity of SHP2” (NOVARTIS AG, priority 2015, dated 2021).
Like-named read-outs stand apart in the source and are kept apart here.

Target: SHP2 (Homo sapiens (Human), UniProt Q06124)
Experiment: SHP2 Allosteric Inhibition Assay
Format: biochemical
Settings: 0.5 nM SHP2 with 0.5 μM peptide IRS1_pY1172(dPEG8)pY1222, surrogate substrate DiFMUP, 25° C.
From the text: SHP2 Allosteric Inhibition Assay
SHP2 is allosterically activated through binding of bis-tyrosyl-phosphorylated peptides to its Src Homology 2 (SH2) domains. The latter activation step leads to the release of the auto-inhibitory interface of SHP2, which in turn renders the SHP2 protein tyrosine phosphatase (PTP) active and available for substrate recognition and reaction catalysis. The catalytic activity of SHP2 was monitored using the surrogate substrate DiFMUP in a prompt fluorescence assay format.
After 30-60 minutes incubation at 25° C., the surrogate substrate DiFMUP (Invitrogen, cat #D6567) was added to the reaction and incubated at 25° C. for 30 minutes. […] The inhibitor dose response curves were analyzed using normalized IC50 regression curve fitting with control based normalization.

| Compound | IC50 (read-out: SHP2 IC50) [nM] | IC50 (read-out: IC50) [nM] |
| --- | --- | --- |
| CC(C)Nc1nccc(-c2n[nH]c3nc(N4CCC5(CC4)CO[C@@H](C)[C@H]5N)n(C)c(=O)c23)c1Cl [Example 7, 6-((3S,4S)-4-amino-3-methyl-2-oxa-8-azaspiro[4.5]decan-8-yl)-3-(3-chloro-2-(isopropylamino)pyridin-4-yl)-5-methyl-1,5-dihydro-4H-pyrazolo[3,4-d]pyrimidin-4-one] | – | 34 |
| COc1ccccc1-c1n[nH]c2nc(N3CCC4(CC3)CO[C@@H](C)[C@H]4N)n(C)c(=O)c12 [Example 66, 6-((3S,4S)-4-amino-3-methyl-2-oxa-8-azaspiro[4.5]decan-8-yl)-3-(2-methoxyphenyl)-5-methyl-1,5-dihydro-4H-pyrazolo[3,4-d]pyrimidin-4-one] | 91 | – |
| Cn1c(N2CCC(C)(CN)CC2)nc2[nH]nc(-c3ccnc(Cl)c3Cl)c2c1=O [Example 25, 6-(4-(aminomethyl)-4-methylpiperidin-1-yl)-3-(2,3-dichloropyridin-4-yl)-5-methyl-1,5-dihydro-4H-pyrazolo[3,4-d]pyrimidin-4-one] | 100 | – |
| Cn1c(N2CCC3(CCC[C@H]3N)CC2)nc2[nH]nc(-c3ccnc(Cl)c3Cl)c2c1=O [Example 22, (R)-6-(1-amino-8-azaspiro[4.5]decan-8-yl)-3-(2,3-dichloropyridin-4-yl)-5-methyl-1,5-dihydro-4H-pyrazolo[3,4-d]pyrimidin-4-one] | 57 | – |
| C[C@@H]1OCC2(CCN(c3cnc4c(-c5ccnc(Cl)c5Cl)n[nH]c4n3)CC2)[C@@H]1N [Example 85, (3S,4S)-8-(3-(2,3-dichloropyridin-4-yl)-1H-pyrazolo[3,4-b]pyrazin-6-yl)-3-methyl-2-oxa-8-azaspiro[4.5]decan-4-amine] | 67 | – |
| C[C@@H]1OCC2(CCN(c3nc4[nH]nc(-c5cc(N)ncc5Cl)c4c(=O)n3C)CC2)[C@@H]1N [Example 80, 6-((3S,4S)-4-amino-3-methyl-2-oxa-8-azaspiro[4.5]decan-8-yl)-3-(2-amino-5-chloropyridin-4-yl)-5-methyl-1,5-dihydro-4H-pyrazolo[3,4-d]pyrimidin-4-one] | 129 | – |
| Cn1c(N2CCC3(CC2)COC[C@H]3N)nc2[nH]nc(-c3ccnc(Cl)c3Cl)c2c1=O [Example 21, (S)-6-(4-amino-2-oxa-8-azaspiro[4.5]decan-8-yl)-3-(2,3-dichloropyridin-4-yl)-5-methyl-1,5-dihydro-4H-pyrazolo[3,4-d]pyrimidin-4-one] | 54 | – |
| C[C@@H]1OCC2(CCN(c3nc4[nH]nc(-c5ccnc(N6CCOCC6)c5Cl)c4c(=O)n3C)CC2)[C@@H]1N [Example 30, 6-((3S,4S)-4-amino-3-methyl-2-oxa-8-azaspiro[4.5]decan-8-yl)-3-(3-chloro-2-morpholinopyridin-4-yl)-5-methyl-1,5-dihydro-4H-pyrazolo[3,4-d]pyrimidin-4-one] | 103 | – |
| COc1nccc(-c2c[nH]c3nc(N4CCC5(CC4)CO[C@@H](C)[C@H]5N)n(C)c(=O)c23)c1Cl [Example 9, 2-((3S,4S)-4-amino-3-methyl-2-oxa-8-azaspiro[4.5]decan-8-yl)-5-(3-chloro-2-methoxypyridin-4-yl)-3-methyl-3,7-dihydro-4H-pyrrolo[2,3-d]pyrimidin-4-one] | – | 26 |
| C[C@@H]1OCC2(CCN(c3nc4[nH]nc(-c5ccnc(N6CC[C@@H](O)C6)c5Cl)c4c(=O)n3C)CC2)[C@@H]1N [Example 43, 6-((3S,4S)-4-amino-3-methyl-2-oxa-8-azaspiro[4.5]decan-8-yl)-3-(3-chloro-2-((R)-3-hydroxypyrrolidin-1-yl)pyridin-4-yl)-5-methyl-1,5-dihydro-4H-pyrazolo[3,4-d]pyrimidin-4-one] | 84 | – |

Next, values leading:

| IC50 (read-out: SHP2 IC50) [nM] | IC50 (read-out: IC50) [nM] | Compound |
| --- | --- | --- |
| 39 | – | C[C@@H]1OCC2(CCN(c3nc4[nH]nc(-c5ccnc(NCC6CC6)c5Cl)c4c(=O)n3C)CC2)[C@@H]1N [Example 74, 6-((3S,4S)-4-amino-3-methyl-2-oxa-8-azaspiro[4.5]decan-8-yl)-3-(3-chloro-2-((cyclopropylmethyl)amino)pyridin-4-yl)-5-methyl-1,5-dihydro-4H-pyrazolo[3,4-d]pyrimidin-4-one] |
| 38 | – | C[C@@H]1OCC2(CCN(c3nc4[nH]nc(-c5cc(F)cc(F)c5)c4c(=O)n3C)CC2)[C@@H]1N [Example 65, 6-((3S,4S)-4-amino-3-methyl-2-oxa-8-azaspiro[4.5]decan-8-yl)-3-(3,5-difluorophenyl)-5-methyl-1,5-dihydro-4H-pyrazolo[3,4-d]pyrimidin-4-one] |
| 30 | – | CNc1nccc(-c2n[nH]c3nc(N4CCC5(CC4)C[C@@H](C)C[C@H]5N)n(C)c(=O)c23)c1Cl [Example 77, 6-((1R,3R)-1-amino-3-methyl-8-azaspiro[4.5]decan-8-yl)-3-(3-chloro-2-(methylamino)pyridin-4-yl)-5-methyl-1,5-dihydro-4H-pyrazolo[3,4-d]pyrimidin-4-one] |
| 35 | – | C[C@@H]1OCC2(CCN(c3nc4[nH]nc(-c5ccnc(NC6CCC6)c5Cl)c4c(=O)n3C)CC2)[C@@H]1N [Example 29, 6-((3S,4S)-4-amino-3-methyl-2-oxa-8-azaspiro[4.5]decan-8-yl)-3-(3-chloro-2-(cyclobutylamino)pyridin-4-yl)-5-methyl-1,5-dihydro-4H-pyrazolo[3,4-d]pyrimidin-4-one] |
| 17 | – | Cc1c(-c2n[nH]c3nc(N4CCC5(CC4)CO[C@@H](C)[C@H]5N)n(C)c(=O)c23)ccnc1Cl [Example 78, 6-((3S,4S)-4-amino-3-methyl-2-oxa-8-azaspiro[4.5]decan-8-yl)-3-(2-chloro-3-methylpyridin-4-yl)-5-methyl-1,5-dihydro-4H-pyrazolo[3,4-d]pyrimidin-4-one] |
| 11 | – | Cn1c(N2CCC3(CC2)C[C@H](F)C[C@H]3N)nc2[nH]nc(-c3ccnc(NC4CC4)c3Cl)c2c1=O [Example 38, 6-((1R,3S)-1-amino-3-fluoro-8-azaspiro[4.5]decan-8-yl)-3-(3-chloro-2-(cyclopropylamino)pyridin-4-yl)-5-methyl-1,5-dihydro-4H-pyrazolo[3,4-d]pyrimidin-4-one] |
| 23 | – | C[C@@H]1OCC2(CCN(c3nc4[nH]nc(-c5ccc(N)nc5Cl)c4c(=O)n3C)CC2)[C@@H]1N [Example 52, 3-(6-amino-2-chloropyridin-3-yl)-6-((3S,4S)-4-amino-3-methyl-2-oxa-8-azaspiro[4.5]decan-8-yl)-5-methyl-1,5-dihydro-4H-pyrazolo[3,4-d]pyrimidin-4-one] |
| 37 | – | Cn1c(N2CCC3(CC2)C[C@H](F)C[C@H]3N)nc2[nH]nc(-c3ccccc3)c2c1=O [Example 39, 6-((1R,3S)-1-amino-3-fluoro-8-azaspiro[4.5]decan-8-yl)-5-methyl-3-phenyl-1,5-dihydro-4H-pyrazolo[3,4-d]pyrimidin-4-one] |
| 23 | – | C[C@@H]1OCC2(CCN(c3nc4[nH]nc(-c5ccccc5F)c4c(=O)n3C)CC2)[C@@H]1N [Example 63, 6-((3S,4S)-4-amino-3-methyl-2-oxa-8-azaspiro[4.5]decan-8-yl)-3-(2-fluorophenyl)-5-methyl-1,5-dihydro-4H-pyrazolo[3,4-d]pyrimidin-4-one] |
| 39 | – | Cn1c(N2CCC3(CC2)COC[C@H]3N)nc2[nH]nc(-c3ccncc3)c2c1=O [Example 69, (S)-6-(4-amino-2-oxa-8-azaspiro[4.5]decan-8-yl)-5-methyl-3-(pyridin-4-yl)-1,5-dihydro-4H-pyrazolo[3,4-d]pyrimidin-4-one] |
